In US20100099698A1, “Compositions for Improving Skin Conditions Comprising Matrine or Its Oxidized Derivatives” (Biospectrum Inc., priority 2007, published 2010):
Where two headings read alike, the source gives them in different places.

Tests used:
human skin = assay: 24-hour cumulative patch test (Finn chamber), cumulative skin irritation; assay type: in vivo; details: for Average reaction level: 9 patches, 30 adults, safe if below 3
Procedure: In order to find out whether matrine and oxymatrine are safe for use on human skin, a skin safety test was conducted. Suitable for this was a cumulative skin irritation test.
Squalene-based preparations containing matrine and oxymatrine in amounts of 1%, 5%, and 10% were applied in patches 9 times to the upper arms of 30 healthy adults once every other day for a total time period of 24 hours. This 24-hour cumulative patch test was conducted to determine whether matrine and oxymatrine irritates the skin or not.
The Finn chamber (Epitest Ltd, Finland) was chosen as the patching method. The above preparation for external use on the skin was dropped into each chamber in an amount of 15 μl, and a patch was applied.
Average reaction level=[{(Reaction index x reaction level)/No. of test subjects×maximum points (4 points)}×100]÷No. of test (9 times) Equation 2
Points were marked in accordance with reaction level, for example, ± for 1 point, + for 2 points, and ++ for […]. The composition can be considered safe if the average reaction level is below 3.

[1] = Anti-oxidation: removal of superoxide anion generated by xanthine oxidase (SOD Assay Kit-WST); assay type: biochemical
Procedure: This experiment evaluates anti-oxidation activity of sample by observing removal of superoxide anion generated by xanthine oxidase. The experiment was performed using the kit (SOD Assay Kit-WST) purchased from Dojindo (JP) in accordance with manufacture's protocol.

collagenase (MMP-1) = biological target: T1, collagenase (MMP-1) (Homo sapiens, UniProt P03956); assay: Collagenase activity, Type 1 collagenase assay kit, PMA-induced; assay type: cell-based
T1 construct: Following incubation, the cell medium was collected and was used as samples; endogenous in cells; host or cells: human fibroblasts (PMA-induced)
T1 sequence (P03956 100-469): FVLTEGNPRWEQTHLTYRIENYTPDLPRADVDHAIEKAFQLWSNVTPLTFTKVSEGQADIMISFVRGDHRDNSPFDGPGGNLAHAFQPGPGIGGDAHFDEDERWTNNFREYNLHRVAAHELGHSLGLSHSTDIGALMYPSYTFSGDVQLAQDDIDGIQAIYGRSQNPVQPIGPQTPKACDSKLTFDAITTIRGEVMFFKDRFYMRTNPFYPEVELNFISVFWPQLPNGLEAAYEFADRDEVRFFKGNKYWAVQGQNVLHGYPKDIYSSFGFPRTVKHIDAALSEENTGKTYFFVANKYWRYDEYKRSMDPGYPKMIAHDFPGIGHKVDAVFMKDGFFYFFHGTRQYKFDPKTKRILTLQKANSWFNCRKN
Procedure: Human fibroblasts (commercially available from pacific) were seeded into a 6-well plate (2×10^5 cells/well) and the well plate was incubated in a 5% CO2 incubator for 24 hr at 37° C. After 24 hr, the medium in each well was removed and samples were treated with various concentrations, followed by incubating again for 24 hr. Following incubation, the cell medium was collected and was used as samples. To measure cytotoxicity of samples to fibroblasts, MIT reagent (1 mg/ml) was added to each well in 1/10 fold volume of the remaining medium, incubated for 3 hr and the medium was eliminated. The medium was dissolved in DMSO and its absorbance at 540 nm was measured.
As a method of measuring the activity of collagenase, an enzyme that decomposes collagen, an antibody against collagenase was used. As material inducing collagenase activity, PMA (phorbol myristate acetate, Sigma) was treated. For measuring collagenase activity, a Type 1 collagenase assay kit (Amersham Biosciences, RPN2629) was used, and the absorbance was measured using an ELISA reader (Bio-Tek ELx808™ Series Ultra Microplate Reader, U.K). The measured average values were represented as mean±standard deviation.

Interleukin-2 promoter = assay: Interleukin-2 luciferase reporter activity in PHA-activated Jurkat cells; assay type: cell-based, Human; details: PHA alone = 100
Procedure: Interleukin-2 promoter was reported to play an important role in the generation of cytokine related to inflammatory. The activity of interleukin-2 luciferase was measured using the following method: […] Following 24 hr, the cell was collected and the luciferase activity was measured using luminometer (Berthold Technologies GmbH&Co.KG, Germany).

B16 mouse melanoma cells = assay: Inhibition of melanin production in melanoma cells; assay type: cell-based; details: 72 h, read-out: Inhibitory rate of melanin production (%)
Procedure: After measuring the inhibition of melanin production by matrine and oxymatrine using B16 mouse melanoma cells (Korean Cell Line Bank), the measurement was compared with that for the inhibition of melanin production by arbutin, known as a melanin production inhibitor.
B16 mouse melanoma cells F10 (Korean Cell Line Bank) were seeded into each well of a 6-well plate (1×10^5 cells/well) in DMEM (Dulbecco's modified Eagle's media) containing 10% FBS (fetal bovine serum) and the cells were cultured to about more than 80% confluence by incubating in a CO2 incubator under conditions of 37° C. and 5.0% CO2. After cultivation, the medium was removed and samples were replaced in medium diluted at suitable concentration, followed by incubating for 3 days under conditions of 37° C. and 5.0% CO2. […] The cells removing medium were washed with PBS (phosphate buffer saline) and treated with trypsin to collect cells. Number of the collected cells was calculated using hematocytometer (Tiefe Depth Profondeur 0.100 mm, Paul Marienfeld GmbH & Co. KG, D.E), centrifuged at 5,000 to 10,000 rpm for 10 min and the supernatant was eliminated, thereby obtaining pellets. This cell pellets were dried at 60° C., 100 μl of 1M NaOH containing 10% DMSO was added to thereto, and intracellular melanin was obtained in incubator at 60° C. Then, the cell solution was measured for absorbance at 490 nm using microplate reader (Bio-Tek ELx8081U, U.S) and the amount of melanin per cell constant number was estimated.

[2] = 5% in squalene, Week 1, of 30 subjects
[3] = 10% in squalene, Week 1, of 30 subjects

Row | Compound | Removal rate of superoxide anion (%) ([1]; 10 μM) | Removal rate of superoxide anion (%) ([1]; 100 μM) | Removal rate of superoxide anion (%) ([1]; 500 μM) | inhibition at 1 µM (collagenase (MMP-1)) | inhibition at 10 µM (collagenase (MMP-1)) | inhibition at 50 µM (collagenase (MMP-1)) | IL-2 luciferase activities (Interleukin-2 promoter; 10 uM with PHA (100 ng/ml)) | IL-2 luciferase activities (Interleukin-2 promoter; 100 uM with PHA (100 ng/ml)) | IL-2 luciferase activities (Interleukin-2 promoter; 500 uM with PHA (100 ng/ml)) | also measured
1 | O=C1CCC[C@@H]2[C@H]3CCCN4CCC[C@@H](CN12)[C@@H]34 [Matrine, matrine] | 6% | 12% | 24% | 19% | 20% | 32% | 92 | 77 | 68 | Average reaction level (human skin; 1% in squalene): 0; No. of test subjects with reaction, 2nd, ± (human skin; 1% in squalene, Week 1, of 30 subjects): 0; Average reaction level (human skin; 5% in squalene): 0.09; No. of test subjects with reaction, 1st, ± (human skin; [2]): 1; No. of test subjects with reaction, 2nd, ± (human skin; [2]): 0; Average reaction level (human skin; 10% in squalene): 0.18; No. of test subjects with reaction, 1st, ± (human skin; [3]): 2; No. of test subjects with reaction, 2nd, ± (human skin; [3]): 0; inhibition at 10 µM (B16 mouse melanoma cells): 11%; inhibition at 100 µM (B16 mouse melanoma cells): 31%; inhibition at 500 µM (B16 mouse melanoma cells): 39%
2 | O=C1CCC[C@@H]2[C@H]3CCC[N+]4([O-])CCC[C@@H](CN12)[C@@H]34 (some centres unmarked) [Oxymatrine, oxymatrine] | 4% | 17% | 32% | 6% | 13% | 17% | 95 | 78 | 62 | No. of test subjects with reaction, 1st, ± (human skin; human, in vivo): 2; No. of test subjects with reaction, 2nd, ± (human skin; human, in vivo): 0; No. of test subjects with reaction, 1st, ± (human skin; in vivo): −; inhibition at 10 µM (B16 mouse melanoma cells; 10 μM, 3 days): 13%; inhibition at 100 µM (B16 mouse melanoma cells; 100 μM, 3 days): 27%; inhibition at 500 µM (B16 mouse melanoma cells; 500 μM, 3 days): 31%
